Here are results for two compounds from article PMC3106415 (Bioorganic & medicinal chemistry, 2010).

One experiment addresses rat A2A AR (Rattus norvegicus, UniProt P30543). Nature of the experiment: Radioligand binding to rA2A AR.
Another experiment addresses rA2A receptor. The following applies: read-out: Ki at rA2A receptor; cited from earlier work.

rat A2A AR, sequence (P30543 whole entry): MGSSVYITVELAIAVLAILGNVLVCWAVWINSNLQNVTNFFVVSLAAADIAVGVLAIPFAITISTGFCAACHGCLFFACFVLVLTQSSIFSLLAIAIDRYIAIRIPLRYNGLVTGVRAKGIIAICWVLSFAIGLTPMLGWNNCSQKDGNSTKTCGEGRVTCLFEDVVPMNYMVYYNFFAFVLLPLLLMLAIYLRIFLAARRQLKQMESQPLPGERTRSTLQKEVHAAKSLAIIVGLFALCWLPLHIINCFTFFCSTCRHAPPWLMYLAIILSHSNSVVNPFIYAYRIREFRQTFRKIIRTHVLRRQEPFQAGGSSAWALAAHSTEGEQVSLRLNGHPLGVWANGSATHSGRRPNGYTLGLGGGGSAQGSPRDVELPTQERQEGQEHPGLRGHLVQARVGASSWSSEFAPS

Take `CCCCCC(=O)Nc1nc(SC)nc2nc(-c3ccco3)nn12` [Compound 11, 2-(2-Furyl)-5-methylthio-7-n-pentylcarbonylamino-[1,2,4]-triazolo[1,5-a]-[1,3,5]triazine]: at rat A2A AR, the Ki (commonly the equilibrium dissociation constant of an inhibitor or competing ligand from its target) lay in the range of 0.18 to 0.4 µM.

Take `Nc1nc(NCCc2ccc(O)cc2)nc2nc(-c3ccco3)nn12` [ZM241385, 4-(2-[7-amino-2-{2-furyl}{1,2,4}triazolo{2,3-a}{1,3,5,}triazin-5-ylamino]ethyl)phenol]: the Ki on rA2A receptor is 0.00021 to 0.0005 µM.
